# Where a name gives a salt, the structure may show the parent alone.
# Molecular target: T1, γ-Secretase (Homo sapiens, UniProt P49768)
# T1 construct: transfected H4 (human neuroglioma) cells stably expressing constructs containing wild-type and mutant forms of β-APP; endogenous in cells; host or cells: H4 human neuroglioma cells, stably transfected with beta-APP (the substrate, not the enzyme)
# Assay: Inhibition of γ-secretase: ELISA of β-AP made by transfected H4 cells in culture
# Assay type: cell-based
# Conditions: H4 (human neuroglioma) cells expressing β-APP (Swedish variant typically), approximately 16 hours incubation, β-AP in conditioned medium by ELISA
# Text: Production and detection of β-AP made by cells in culture. The use of transfected H4 (human neuroglioma) cells stably expressing constructs containing wild-type and mutant forms of β-APP have been used to identify inhibitors of β-AP production. The Swedish variant of β-APP produces 5-7 fold more β-AP than the wild type and is typically used due to its enhanced signal. […] The capture antibody is typically a mouse monoclonal (IgG1/kβ-APPa). The antibody recognizes the carboxyl terminal epitope of β-AP. The specificity of the capture antibody ensures measurement of β-AP without interference by other secreted β-APP fragments that share amino acid sequence (β-AP1-16) with β-AP. The detecting antibody is typically an affinity purified rabbit polyclonal antibody, specific for the amino terminus of β-AP. In the cell-based assay conditioned medium from H4 cells is tested by ELISA for the quantity of β-AP present. The cell-based assay can be used to identify compounds that inhibit β-AP production. The assay should detect agents that inhibit cleavage at the β-secretase and/or the γ-secretase cleavage site as well as detecting any agent that interferes with the production and/or release of β-AP.
# A typical ELISA-based assay requires plating of the transfected cells at a density sufficient for the rapid detection of the secreted β-AP (experimentally predetermined for a particular stable cell population) in a 96-well format. Cells are plated for at least six hours prior to the introduction of the test compound at which time the growth medium is replaced by fresh medium containing the agent to be tested. Test agents may typically consist of synthetic compounds, secondary metabolites from bacterial or fungal fermentation extracts, or extracts from plant or marine samples. All synthetic agents are initially screened at doses ranging from 10-100 μM or in the case of extracts at sufficient dilution to minimize cytotoxicity. Incubation of the cells with the test agent will continue for approximately 16 hours at which time equal aliquots of media from each sample well is removed and placed into a previously prepared ELISA plate for β-AP quantitation. The ELISA is carried out in a manner described by others (Haass, et al., 1992; Hawlow and Lane, 1988) and the β-AP signal quantitated. Results are obtained by analysis of the ELISA plate following development and comparison to the mock treated cell populations and samples in which known amounts of β-AP were added to construct a standard concentration curve. […] If a compound is found to be active, then a dose response experiment is performed to determine the lowest dose of compound necessary to elicit the inhibition of the production of β-AP.
row,Compound,Activity Rating (Inhibition of γ-Secretase)
1,"CC(C)=CCCN[C@@H](CC1CCCCC1)[C@@H](O)C[C@H](C(=O)NCC(C)C)C(C)C (relative stereo) [Example 49, [αS(αR*,γR*,δR*)]-γ-hydroxy-α-(1-methylethyl)-δ-[(4-methyl-3-pentenyl)amino]-N -(2-methylpropyl)cyclohexanehexanamide]",+++ (+++ < = 10)
2,"CCCCNC(=O)[C@@H](C[C@H](O)[C@H](CC1CCCCC1)NCc1cccc(C)c1)C(C)C (relative stereo) [Example 36, [αS-(αR*,γR*,δR*)]N-Butyl-γ-hydroxy-α-(1-methylethyl)-δ-[[(3-methylphenyl)methyl]amino]cyclohexanehexanamidehydrochloride]",+++ (+++ < = 10)
3,"CCCCNC(=O)[C@@H](C[C@H](O)[C@H](CC1CCCCC1)NCCCC(C)C)C(C)C (relative stereo) [Example 20, [αS-(αR*,γR*,δR*)]N-Butyl-γ-hydroxy-α-(1-methylethyl)-δ-[(4-methylpentyl)amino]cyclohexanehexanamide hydrochloride]",+++ (+++ < = 10)
4,"CCCCNC(=O)[C@@H](C[C@H](O)[C@H](CC1CCCCC1)NCCCC1CC1)C(C)C (relative stereo) [Example 46, [αS(αR*,γR*,δR*)]-N-Butyl-δ-[(3-cyclopropyl)propyl]amino-γ-hydroxy-α-(1-methylethyl)cyclohexanehexanamide hydrochloride]",+++ (+++ < = 10)
5,"CCCCNC(=O)[C@H](Cc1ccccc1)C[C@H](O)[C@H](CC1CCCCC1)NCCCC(C)C (relative stereo) [Example 25, [αS-(αR*,γR*,δR*)]N-Butyl-γ-hydroxy-δ-[(4-methylpentyl)amino]-α-(phenylmethyl)cyclohexanehexanamide hydrochloride]",+++ (+++ < = 10)
6,"CC(C)CCC(C)N[C@@H](CC1CCCCC1)[C@@H](O)C[C@H](C(=O)NCC(C)C)C(C)C (relative stereo) [Example 41, [αS(αR*,γR*,δR*)]-γ-Hydroxy-δ-[(1,4-dimethylpentyl)amino]-α-(1-methylethyl)-N-(2-methylpropyl)cyclohexanehexanamide hydrochloride]",+++ (+++ < = 10)
7,"CCCCNC(=O)[C@@H](C[C@H](O)[C@H](CC1CCCCC1)NCCC(C)C)C(C)C (relative stereo) [Example 35, [αS-(αR*,γR*,δR*)]N-Butyl-γ-hydroxy-δ-[(3-methylbutyl)amino]-α-(1-methylethyl)cyclohexanehexanamide hydrochloride]",+++ (+++ < = 10)
8,"CCCCNC(=O)[C@H](CC(C)C)C[C@H](O)[C@H](CC1CCCCC1)NCCCC(C)C (relative stereo) [Example 22, [αS-(αR*,γR*,δR*)]N-Butyl-γ-hydroxy-δ-[(4-methylpentyl)amino]-α-(2-methylpropyl)cyclohexanehexanamide hydrochloride]",+++ (+++ < = 10)
9,"CC(C)CNC(=O)[C@@H](C[C@H](O)[C@H](CC1CCCCC1)NC1CCCC(C)C1)C(C)C (relative stereo) [Example 42, [αS(αR*,γR*,δR*)]-γ-Hydroxy-δ-[(3-methylcyclohexyl)amino]-α-(1-methylethyl)-N-(2-methylpropyl)cyclohexanehexanamide]",+++ (+++ < = 10)
10,"CCCCNC(=O)[C@H](CC1CCCCC1)C[C@H](O)[C@H](CC1CCCCC1)NCCCC(C)C (relative stereo) [Example 26, [αS-(αR*,γR*,δR*)]-N-Butyl-α-(cyclohexylmethyl)-γ-hydroxy-δ-[(4-methylpentyl)amino]cyclohexanehexanamide, hydrochloride]",+++ (+++ < = 10)
11,"CCCCNC(=O)[C@@H](C[C@H](O)[C@H](CC1CCCCC1)NC1CCC(C(C)C)CC1)C(C)C (relative stereo) [Example 44, [αS(αR*,γR*,δR*)]-N-butyl-γ-hydroxy-α-(1-methylethyl)-δ-[[4-(1-methylethyl)cyclohexyl]amino]cyclohexanehexanamide hydrochloride]",+++ (+++ < = 10)
12,"CCCCNC(=O)[C@@H](C[C@H](O)[C@H](CC1CCCCC1)NCc1cccc(OC)c1)C(C)C (relative stereo) [Example 37, [αS-(αR*,γR*,δR*)]N-Butyl-γ-hydroxy-δ-[[(3-methoxyphenyl)methyl]amino]-α-(1-methylethyl)cyclohexanehexanamide hydrochloride]",++ (++ > 10 & < = 25)
13,"CCCCNC(=O)[C@@H](C[C@H](O)[C@H](CC1CCCCC1)NCCOC(C)C)C(C)C (relative stereo) [Example 39, [αS-(αR*,γR*,δR*)]N-Butyl-γ-hydroxy-δ-[2-(1-methylethoxy)ethyl]amino]-α-(1-methylethyl)cyclohexanehexanamidehydrochloride]",+ (+ > 25 & < = 50 μM)
14,"CCCCCN[C@@H](CC1CCCCC1)[C@@H](O)C[C@H](C(=O)NCCCC)C(C)C (relative stereo) [Example 45, [αS(αR*,γR*,δR*)]-N-Butyl-γ-hydroxy-α-(1-methylethyl)-δ-(pentylamino)cyclohexanehexanamide hydrochloride]",+++ (+++ < = 10)
15,"CCCCNC(=O)[C@H](C)C[C@H](O)[C@H](CC1CCCCC1)NCCCC(C)C (relative stereo) [Example 19, [αS-(αR*,γR*,δR*)]N-Butyl-γ-hydroxy-α-methyl-δ-[(4-methylpentyl)amino]cyclohexanehexanamide hydrochloride]",+++ (+++ < = 10)
16,"C=C(C)C[C@H](C[C@H](O)[C@H](CC1CCCCC1)NCCCC(C)C)C(=O)NCCCC (relative stereo) [Example 21, [αS-(αR*,γR*,δR*)]N-Butyl-γ-hydroxy-α-(2-methyl-2-propenyl)-δ-[(4-methylpentyl)amino]cyclohexanehexanamide hydrochloride]",+++ (+++ < = 10)
17,"CC(C)CCCN[C@@H](CC1CCCCC1)[C@@H](O)C[C@H](C(=O)N[C@H](C)c1ccccc1)C(C)C (relative stereo) [Example 28, [αS-(αR*,γR*,δR*,N-(1S*))]γ-hydroxy-α-(1-methylethyl)-δ-[(4-methylpentyl)amino]-N-(1-phenylethyl)cyclohexanehexanamide hydrochloride]",+++ (+++ < = 10)
18,"CC(C)CCCN[C@@H](CC1CCCCC1)[C@@H](O)C[C@H](C(=O)NCCc1ccccc1)C(C)C (relative stereo) [Example 29, [αS-(αR*,γR*,δR*)]γ-hydroxy-α-(1-methylethyl)-δ-[(4-methylpentyl)amino]-N-(2-phenylethyl)cyclohexanehexanamide hydrochloride]",+++ (+++ < = 10)
19,"CCCCNC(=O)[C@@H](C[C@H](O)[C@H](CC1CCCCC1)NCCC(C)CC)C(C)C (relative stereo) [Example 33, [αS-(αR*,γR*,δR*)]N-Butyl-γ-hydroxy-α-(1-methylethyl)-δ-[(3-methylpentyl)amino]cyclohexanehexanamide hydrochloride]",+++ (+++ < = 10)
20,"CCCCNC(=O)[C@@H](C[C@H](O)[C@H](CC1CCCCC1)NCCCCC(C)C)C(C)C (relative stereo) [Example 34, [αS-(αR*,γR*,δR*)]N-Butyl-γ-hydroxy-α-(1-methylethyl)-δ-[(5-methylhexyl)amino]cyclohexanehexanamide hydrochloride]",+++ (+++ < = 10)
21,"CC(C)CNC(=O)[C@@H](C[C@H](O)[C@H](CC1CCCCC1)NC1CCC(C)CC1)C(C)C (relative stereo) [Example 40, [αS(αR*,γR*,δR*)]-γ-Hydroxy-δ-[(4-methylcyclohexyl)amino]-α-(1-methylethyl)-N-(2-methylpropyl)cyclohexanehexanamide]",+++ (+++ < = 10)
22,"CCCCNC(=O)[C@@H](C[C@H](O)[C@H](CC1CCCCC1)NCc1ccc2ccccc2c1)C(C)C (relative stereo) [Example 38, [αS-(αR*,γR*,δR*)]N-Butyl-γ-hydroxy-α-(1-methylethyl)-δ-[[(2-naphthyl)methyl]amino]cyclohexanehexanamide hydrochloride]",+ (+ > 25 & < = 50 μM)
